Measured values published in patent publication US20080312326A1, “Method for the Prevention and/or Treatment of Neurodegenerative Diseases Characterized by Administering and Ep1 Receptor Antagonist” (THE JOHN HOPKINS UNIVERSITY, priority 2005, published 2008).

Experiments:
[1] = system: NMDA-induced brain lesion in C57BL/6 mice; assay: NMDA-induced brain lesion after ICV pretreatment, wildtype mice; type: in vivo; details: for brain lesion volume (NMDA-induced): lesion at 48 h, vs NMDA-lesion and vehicle-NMDA groups
Procedure: (§1) Following protocols approved by the Institutional Animal Care and Use Committee of Johns Hopkins University, adult male C57BL/6 mice (Charles River, Wilmington, Mass.) and EP1^−/−, weighing 20-25 g were used in this study.
Weight and rectal temperature of each mouse was recorded before the surgical procedure. The mouse was subjected to intracerebroventricular (ICV) injection of vehicle or freshly prepared compound A or compound B followed by unilateral intrastriatal injection of NMDA, prepared in phosphate buffer saline (pH˜7.2) (J. Neurosci. 1997, 17, 6908-6917). In brief, each mouse was anesthetized, maintained at 1.0% halothane, and mounted on a stereotaxic frame (Stoelting Co., Wood Dale, Ill.). Varying body-weight (BW) doses of compound A (0.1 nmol/kg BW, n=8; 1 nmol/kg BW, n=12; 10 nmol/kg BW, n=8) or compound B (0.1 nmol/kg BW, n=8; 1 nmol/kg BW, n=12; 10 nmol/kg BW, n=9) were injected into the right lateral ventricle (stereotaxic coordinates PA-0.5 mm, lateral-1.0 mm from bregma, and ventral-2.5 mm relative to dura) over 30 sec, with the help of 1-μL Hamilton® syringe, and the needle was left in place for an additional 2 min. Twenty minutes later, 0.3 μl of 50 mM NMDA was injected into the right striatum over 2 min and the needle was left in place for additional 5 min. The NMDA-lesion control group (n=12) received 0.3 μL NMDA, and the vehicle-NMDA control group (n=11) received 0.2 μL vehicle ICV, followed by 0.3 μL NMDA in the striatum. Sham control and vehicle control groups were treated similarly with saline. After injections, mice were placed in a thermoregulated chamber maintained at 31° C. and returned to their cages after full recovery from anesthesia. Throughout the experimental procedure, rectal temperature of mice was monitored and maintained at 37.0±0.5° C.
(§2) At 48 h […], weight and rectal temperature were recorded and brains were harvested and immediately frozen in 2-methyl butane (pre-cooled over dry ice). Brain sections were cut on a cryostat and stained with cresyl violet to estimate lesion volume. Images of the brain sections were taken and analyzed with the help of SigmaScan Pro 5.0 (Systat, Inc., Point Richmond, Calif.).
Data were analyzed using SigmaStat 2.0 (Systat), and significance level was set at p<0.05. Statistical analysis was performed by Student's t-test. All data are reported as means±s.d.

[2] = system: NMDA-induced toxicity in EP1−/− mice; assay: NMDA-induced brain lesion after ICV treatment, EP1−/− mice; type: in vivo; details: ICV treatment of EP1−/− mice, compared to the untreated EP1−/− group
Procedure: as §1
Weight and rectal temperature of each mouse was recorded before the surgical procedure. The mouse was subjected to intracerebroventricular (ICV) injection of vehicle or freshly prepared compound A or compound B followed by unilateral intrastriatal injection of NMDA, prepared in phosphate buffer saline (pH˜7.2) (J. Neurosci. 1997, 17, 6908-6917). In brief, each mouse was anesthetized, maintained at 1.0% halothane, and mounted on a stereotaxic frame (Stoelting Co., Wood Dale, Ill.). […] Throughout the experimental procedure, rectal temperature of mice was monitored and maintained at 37.0±0.5° C.
as §2, with “Brain sections were cut on a cryostat and stained with cresyl violet to estimate lesion volume.” left out
Data were analyzed using SigmaStat 2.0 (Systat), and significance level was set at p<0.05. […]

[3] = 0.1 nmol/kg BW ICV pretreatment 20 min before intrastriatal 50 mM NMDA
[4] = 1 nmol/kg BW ICV pretreatment 20 min before intrastriatal 50 mM NMDA
[5] = 10 nmol/kg BW ICV pretreatment 20 min before intrastriatal 50 mM NMDA

Compound | brain lesion volume (NMDA-induced) [1, 3] | brain lesion volume (NMDA-induced) [1, 4] | brain lesion volume (NMDA-induced) [1, 5] | toxicity (lesion volume) of the 10 nmol/kg BW dose compared to the 1 mmol/kg BW group ([1]; 10 nmol/kg BW ICV pretreatment, NMDA-induced lesion) | lesion volume to NMDA-induced toxicity in EP1−/− mice [2]
CCCC[C@H](C)C[C@H](O)/C=C/[C@H]1[C@H](O)CC(=O)[C@@H]1CC(=O)C1CCC(C(=O)O)CC1 (stereo partly drawn) [compound A, 4-({(1R,2R,3R)-3-hydroxy-2-[(1E,3S,5S)-3-hydroxy-5-methylnon-1-enyl]-5-oxocyclopentyl}acetyl)cyclohexanecarboxylic acid, reference compound] | non-significant increases | non-significant increases | significant increase | – | –
CC(C)CN(c1ccc(C(F)(F)F)cc1OCc1ccc(/C=C/C(=O)O)cc1)S(=O)(=O)c1ccco1 [compound B, (2E)-3-(4-{[2-[(2-furylsulfonyl)(isobutyl)amino]-5-(trifluoromethyl)phenoxy]methyl}phenyl)acrylic acid] | No significant protection | significantly decreased | significantly decreased | slight, but not significant, toxicity | no significant difference
